Patent US12622890B2, “Use of the active compound in the prevention or treatment of ovarian dysfunction diseases” (INSTITUTE OF BIOPHYSICS, CHINESE ACADEMY OF SCIENCES, priority 2022, dated 2026)

What was measured:
POI model mice = assay: Estrous cycle observation by vaginal smear cytology in POI model mice; assay type: in vivo
Procedure: Cytological observation of vaginal smear was performed daily.
The vagina of mice was exposed, and about 30 μl of normal saline was dripped into the vagina, gently aspirated onto the slide, and observed under the microscope. Staining was performed when necessary, fixed with 95% ethanol for 10 minutes, stained with hematoxylin in aqueous solution for 5-8 minutes, washed with running water for color separation, and then stained with eosin for 3 minutes. After drying. the slices were sealed with neutral gum.
The vagina of mice was exposed, and about 30 μl of normal saline was dripped into the vagina, gently aspirated onto the slide, and observed under the microscope. Staining was performed when necessary, stained with hematoxylin in aqueous solution for several minutes after drying, washed with running water for color separation, and then stained with alchhol eosin for several seconds. The slices were sealed with neutral gum.
During the estrous cycle, a series of histological and physiological changes occur in the reproductive and endocrine systems of mice. According to these changes, the estrous cycle can be divided into proestrous (P), estrous (E), metestrum (M) and diestrum (D). • 1. Observation of estrous cycle in mice of Example 1
After modeling and treatment, there were 6 mice left in the normal saline group, 6 mice left in the sodium fumarate treatment group, 7 mice left in the hyodeoxycholic acid group, and 7 mice left in the sodium fumarate and hyodeoxycholic acid combination group. […] The estrous cycle was divided into four periods (P: proestrous; E: estrous period; M: metestrum; D: diestrum) for vaginal smear cytological observation, the results are shown in FIG. 3.
The estrous cycle of mice was plotted according to the cytological results of vaginal smears observed for 12 consecutive days, and the results are shown in FIG. 4. The estrous cycle of mice is about 4 to 5 days, which is divided into four periods alternately. […] The estrous cycle of 4 mice was recovered in sodium fumarate treatment group. The estrous cycle of 3 mice was recovered in HDCA group. The estrous cycle of 6 mice was recovered in group treated with SF and HDCA.

POI mice = assay: Serum malondialdehyde (MDA) level, oxidative stress; assay type: in vivo
Excerpt: Biomarkers mentioned herein, such as follicle stimulating hormone (FSH), estrogen (e.g., E2), and superoxide dismutase (SOD), malondialdehyde (MDA), relative reactive oxygen species (ROS), and lactate dehydrogenase (LDH), etc., can be detected using methods commonly known in the field. Detection methods typically cover methods that quantify the level of a biomarker in a sample (quantitative methods). Which of the following methods are suitable for qualitative and/or quantitative detection of biomarkers is generally known to those skilled in the field. Samples can be conveniently measured, for example for proteins using immunoassays such as ELISA, RIA, etc., which are commercially available.
(§1) After 12 days of administration, half of the mice in each group were sacrificed, and their blood was collected and kept still. The serum was separated after centrifugation at 4500 rpm and stored in a refrigerator at −80° C. for future use to measure levels of follicle stimulating hormone, estrogen, and the indexes of oxidative stress such as superoxide dismutase (SOD) and malondial dehyde (MDA).
as §1, with “kept in” for “kept”, “levals” for “levels”, “malondialdehyde” for “malondial dehyde”
The oxidative stress hypothesis believes that the reduction of antioxidant components in the body leads to the weakening of the ability to remove free radicals, which leads to oxidative damage of biological macromolecules, and the imbalance of cellular oxidative and antioxidant functions, which leads to oxidative stress, and then leads to disease and aging. Oxygen free radicals act on unsaturated fatty acids of lipids to generate lipid peroxides, including malondialdehyde (MDA) and so on. The antioxidant defense system of scavenging free radicals includes superoxide dismutase (SOD) and so on. Recently, oxidative stress has been reported to be associated with ovarian aging and POI in primates. Therefore, this embodiment examined the effects of DMF, HDCA, and DMF+HDCA on oxidative stress in mice with premature ovarian failure, and the results are shown in Table 5, FIGS. 9 to 12.

[1] = Example 1, during drug administration, FIG. 4B

Structure (SMILES): C[C@H](CCC(=O)O)[C@H]1CC[C@H]2[C@@H]3C[C@H](O)[C@@H]4C[C@H](O)CC[C@]4(C)[C@H]3CC[C@]12C [HDCA, hyodeoxycholic acid, reference compound]
- Effect on mice with premature ovarian failure (conclusion from estrous cycle) (POI model mice; Example 1): preventive and therapeutic effects
- Average rate of diestrum (D) in estrous cycle (POI model mice; [1]): 39.29%
- Average rate of estrous stage (E) in estrous cycle (POI model mice; [1]): 22.62%
- Average rate of metestrum (M) in estrous cycle (POI model mice; [1]): 14.29%
- Average rate of proestrous (P) in estrous cycle (POI model mice; [1]): 23.81%
- Number of mice with estrous cycle recovered (POI model mice; Example 1, 12 days observation, 6 SF, 7 HDCA, 7 SF and HDCA mice left): 3 mice
- MDA activity compared with the normal saline group (POI mice; FIG. 10, no significant difference): reduced to some extent
- MDA (POI mice; serum, POI mice after treatment): 2.86 ± 4.39 nmol/mL
